# Results taken from the OPERA property sets (Mansouri et al. 2018).
# Conditions: not given
SMILES,log10 vapour pressure (mmHg),melting point [°C],ready biodegradability,log10 Koc (L/kg),boiling point [°C],log10 Henry constant (atm·m³/mol),log10 Koa
C=Cc1cccc(C=C)c1,-0.237,-52.3,not readily biodegradable,,,,
CCCN(CCCl)c1c([N+](=O)[O-])cc(C(F)(F)F)cc1[N+](=O)[O-],-4.52,42,,3.55,,,
CC[C@H]1OC(=O)[C@H](C)C(=O)[C@H](C)[C@@H](O[C@@H]2O[C@H](C)C[C@H](N(C)C)[C@H]2O)[C@@H](C)C[C@@H](C)C(=O)C=C[C@]1(C)O,,170,,,,,
N#Cc1ncnc2nc[nH]c12,,188,,,,,
O=C(O)c1ccccc1C(=O)Nc1cccc2ccccc12,,185,,,,,
C[C@]12CC[C@@H]3c4ccc(O)cc4CC[C@H]3[C@@H]1C[C@@H](O)[C@@H]2O,,282,,,,,
CC(Br)CCCBr (stereo not drawn),,-34.4,,,,,
COC(C)C,2.78,,,,30.7,,
CCCCCOC(=O)CC,0.556,-73.1,,,169,,
O=C1c2ccccc2-c2ccc3c4c(ccc1c24)-c1ccccc1C3=O,,385,,4.28,,,
O=[N+]([O-])c1cccc(I)c1,,38.5,,,280,,
CC(CCC(=O)O)c1ccccc1 (stereo not drawn),,13,,,,,
CCCCCCCOC=O,,,,,178,,
Cc1ccc2[nH]c3ccccc3c2c1,,208,,,365,,
CCCCC(CC)CN1C(=O)C2C3C=CC(C3)C2C1=O (stereo not drawn),-4.74,,,,,,
Cc1c(-c2ccccc2)[nH]c2ccccc12,,91.5,,,,,
Cc1ccc2cc3ccccc3cc2c1,-5.27,209,,,,,
FC1(F)C(F)(F)C(F)(F)C1(F)F,3.37,-40.1,,,-5.9,,
COC(C)(C)C,2.4,-109,not readily biodegradable,,55.2,-3.23,2.58
CCOC(=O)CC(=O)OCC,-0.57,-50,readily biodegradable,,200,,
O=c1cc(CO)occ1O,,154,,,,,
CC(C)(Oc1ccc(Cl)cc1)C(=O)OCc1cccnc1,,48.5,,,,,

SMILES,log10 vapour pressure (mmHg),melting point [°C],ready biodegradability,log10 Koc (L/kg),boiling point [°C],log10 Henry constant (atm·m³/mol),log10 Koa
C1CCC(C(C2CCCCC2)C2CCCCC2)CC1,,48,,,326,,
CC(C)[C@@H](N)C(=O)O,,315,,,,,
N#Cc1ccc(Cl)cc1N,,161,,,,,
CCCCCCCCCCCCCC#N,,19,,,,,
Clc1cc(-c2cc(Cl)c(Cl)c(Cl)c2Cl)c(Cl)c(Cl)c1Cl,,,,6.41,,-5,
O=C(O)c1cccnc1C(=O)O,,228,readily biodegradable,,,,
Cc1c2ccccc2c(C)c2c1ccc1ccccc12,,122,,5.37,,,
S=C(Nc1ccccc1)c1ccccc1,,102,,,,,
CCOP(=S)(OCC)Oc1cnc2ccccc2n1,-5.58,31.5,,,,,
C=C(C)C(=O)OC(C)C,,,,,125,,
O=Cc1ccc2c(c1)OCO2,-2,37,readily biodegradable,,263,,
Brc1cc(Br)c(Br)c(Br)c1,,99.5,,,329,,
COc1ccc(-c2cc(=O)c3c(O)c(OC)c(O)cc3o2)cc1,,221,,,,,
C/C=C/C=C/CCCCCCCO,-3.29,32,,,,,
CC(C)N(C(=O)SCC(Cl)=CCl)C(C)C,-3.82,25,,3.28,,,
NNC(=O)c1ccccc1[N+](=O)[O-],,124,,,,,
CCSC,2.2,-106,,,66.7,,
ClC(Cl)I,,,,,132,,
Fc1c(F)c(F)c(Br)c(F)c1F,0.903,-31,,,137,,
OC(O)C(Cl)(Cl)Cl,1.18,57,,,98,,
C=COC(=O)C=C,,,,,91,,
COC(=O)c1c(C)cc(OC(=O)c2c(C)cc(O)c(C=O)c2O)c(C)c1O,,195,,,,,

SMILES,log10 vapour pressure (mmHg),melting point [°C],ready biodegradability,log10 Koc (L/kg),boiling point [°C],log10 Henry constant (atm·m³/mol),log10 Koa
CCCCOC(=O)C(C)C,,,,,155,,
O=C(Cl)C(Cl)=C(Cl)Cl,,,,,158,,
CC(C)CC(C)Nc1ccc(Nc2ccccc2)cc1 (stereo not drawn),,,not readily biodegradable,,,,
CN1CCN(C2=Nc3ccccc3Oc3ccc(Cl)cc32)CC1,,110,,,,,
O=C1c2ccc(O)cc2OC(c2ccc(O)c(O)c2)C1O (stereo not drawn),,227,,,,,
Clc1cc(Cl)c(-c2c(Cl)cc(Cl)cc2Cl)c(Cl)c1,-4.92,,,6.08,,,8.99
CCCc1cc(C(N)=S)ccn1,,137,,,,,
CCCCCCCCCCCCCCCCCCCCCC(N)=O,,,not readily biodegradable,,,,
Nc1ccc(Cl)cc1Cl,,63.5,not readily biodegradable,2.72,245,,
Cc1ccc(O)cc1Cl,,55.5,not readily biodegradable,,228,,
CC(C)(c1cc(Br)c(O)c(Br)c1)c1cc(Br)c(O)c(Br)c1,,181,not readily biodegradable,,,,
O=Cc1ccnc2ccccc12,,51,,,,,
Cc1ccc(C)c(OCCCC(C)(C)C(=O)O)c1,,62,,,,,
CC(=O)OC(C)C,1.78,-73.4,readily biodegradable,,88.6,-3.56,2.93
CC(C)(C)[C@@H](O)[C@H](Cc1ccc(Cl)cc1Cl)n1cncn1,,148,,,,,
N#Cc1cc(I)c(O)c(I)c1,,212,not readily biodegradable,,,,
CC(C)C(C)C(C)C(C)C (stereo not drawn),,,,,156,,
FC(F)C(F)(F)CBr,,,,,74,,
CCCCCOC(=O)CCC,,-73.2,,,186,,
C=CCCCCCCCCCCCCCCCC,-4.17,17.5,,,,,
NC(=O)C(Br)(Br)Br,,122,,,,,
CC(=O)OC1CCCCC1C(C)(C)C (stereo not drawn),,35,,,,,

SMILES,log10 vapour pressure (mmHg),melting point [°C],ready biodegradability,log10 Koc (L/kg),boiling point [°C],log10 Henry constant (atm·m³/mol),log10 Koa
O=C(O)CCCc1c[nH]c2ccccc12,,124,,,,,
CCCCCCC(CCCCCC)CCCCCC,,-28.3,,,,,
O=C(C=CC(=O)Oc1ccccc1)Oc1ccccc1,,73,,,,,
NC(=O)Nc1cccc2ccccc12,,220,,,,,
O=S(=O)(F)Cc1ccccc1,,93,,,,,
Cc1cccc(C)c1[N+](=O)[O-],,15,,,226,,
C=Cc1cccc([N+](=O)[O-])c1,,-10,not readily biodegradable,,,,
CC[C@@H](N)CO,,-2,,,178,,
Cc1ccc(C)c2occc12,,,,,216,,
Cc1cc(Br)cc(Br)c1O,,58,,,,,
CCc1cnc(C2=NC(C)(C(C)C)C(=O)N2)c(C(=O)O)c1 (stereo not drawn),,171,,0.85,,,
CCCCCCCCCCCC(=O)Cl,,-17,,,,,
CC(CCO)CC(F)(F)F (stereo not drawn),,,,,159,,
O=C(O)c1cnccn1,,,readily biodegradable,,,,
CCOC(=O)CCCC(C)=O,,,,,222,,
CCCCCCc1cccc2ccccc12,,-18,,,322,,
Clc1c(Cl)c(Cl)c2c(c1Cl)Oc1ccccc1O2,-7.32,188,,,,-4.7,9.7
OC(c1ccccc1)(c1ccccc1)C1CCNCC1,,160,,,,,
C=C(C)C(=O)O,-0.0044,16,readily biodegradable,,163,-6.41,

# Same assay, conditions: fish
SMILES,log10 BCF,log10 biotransformation half-life (days)
C=Cc1cccc(C=C)c1,2.54,0.59
Cc1ccc2cc3ccccc3cc2c1,,-0.02
COC(C)(C)C,0.18,-0.88
Clc1cc(-c2cc(Cl)c(Cl)c(Cl)c2Cl)c(Cl)c(Cl)c1Cl,,3
Nc1ccc(Cl)cc1Cl,1.36,-0.65
CC(C)(c1cc(Br)c(O)c(Br)c1)c1cc(Br)c(O)c(Br)c1,2.43,
Clc1c(Cl)c(Cl)c2c(c1Cl)Oc1ccccc1O2,3.46,1.02
